Assays:
HepG2 (liver carcinoma) = test: Xenograft nude mouse model, HepG2; type: in vivo; details: nude mice, 100 mg/kg in PEG300
Description: (§1) JR (rhabdomyosarcoma), HepG2 (liver carcinoma), SR Liquid Leukemia (leukemia), RSI 184 B Lymphoma (lymphoma), and G401 rhabdoid (kidney) cancer cells for use in a xenograft mouse model were collected from JR, HepG2, SR Liquid Leukemia, RS1184 B Lymphoma, and G401 rhabdoid tumor cell lines and injected at 5×10^6 cells per nude mouse in a volume of 100 μl subcutaneously. The animals were examined three times weekly to determine the progression of the tumors and determine body weight. Dosing started when tumors reached the ˜75-150 mm^3 size. Animals were randomized and distributed in groups in such a way that mean tumor weights in all groups were within 15% of the mean tumor weight in Group 1 (Control—vehicle group). Upon reaching the ˜75-150 mm^3 target size an effective amount of lansoprazole was administered to the mice in a suspension of PEG300 at a concentration of 100 mg/kg.

GDM-1 (leukemia) = test: MTT tumor cell growth assay; type: cell-based
Description: (§2) In one study, adherent cells were plated approximately 16-24 hours before the day of the experiment in 180 μl growth media. On the day of the experiment, the plated adherent cells were analyzed and counted and suspension cells were plated in 180 μl growth media. 10× lansoprazole compounds and vehicle was prepared. The 10× lansoprazole compounds were prepared by diluting lansoprazole to final concentrations of 100 μM, 30 μM, 10 μM, 3 μM, and 1 μM. A vehicle was prepared by preparing a solution of PBS, equivalent to the volume used for 10 μM lansoprazole wherein the 1× solution constitutes ˜0.06% PBS. 10 μl of the various 10× lansoprazole solutions and the vehicle were added to the cells. The cells were incubated at 37° C., 5% CO2 for 48 hours. The media was then aspirated. The cell suspension was then spun at 1500 RPM for 10 minutes. The media was slowly removed. 200 μl of MTT solution was added to each well with a concentration of 0.863 mg/ml MTT in the growth media. The cells were incubated at 37° C., 5% CO2 for 4 hours and the medium is then aspirated. The plate containing the cell suspension was then spun at 1500 RPM for 10 minutes. The media was slowly removed using a multichannel pipettor. 100 μl of DMSO was then added to each well. The cells were incubated at 37° C., 5% CO2 for 5 minutes and the absorbance was obtained at 560 nm using a Dynex Opsys MR plate reader. The cells used for this procedure were the following cell lines: IGROV1 (ovarian cancer); OVCAR 8 (ovarian cancer); ES-2 (ovarian cancer); CAOV3 (ovarian cancer); OVCAR5 (ovarian cancer); SUDHL4 (lymphoma); RPMI8226 (myeloma); RPMI6666 (Hodgkin's lymphoma); NC37 (lymphoma); GDM-1 (leukemia); MC/CAR (prostate cancer); DU-145 (prostate cancer), J45-01 (leukemia), MOLT3 (leukemia), HUT78, J-gamma-1 (leukemia), MCF7 […], COL0205 (colon cancer), HL60 CLONE 15 (leukemia), T47D (breast cancer), P116 (intestinal cancer), KU812 (leukemia), SW620 (colon cancer), MK92-M1 (lymphoma), MV-4-11 (leukemia), HS578T (breast cancer), HT29 (colon cancer), HCT 116 (colon cancer), CAKI-1 (kidney cancer), A549 (lung cancer), H460 (lung cancer), A3 (colon cancer), MDA-MB231 […], MALME 3M (melanoma), RXF393 (kidney cancer), RS4.11 (leukemia), PC3 (prostate cancer), OVCAR3 (ovarian cancer), MDA-MB435 (melanoma), HUT102 (lymphoma), HL60 (leukemia), CCRF-CEM (leukemia), HUT78 (lymphoma), 786-O (kidney cancer), ACHN (kidney cancer), A498 (kidney cancer), H226 (lung cancer), H522 (lung cancer), HOP92 (lung cancer), SNB 19 (brain cancer), OVCAR4 (ovarian cancer), H9 (lymphoma), UO-31 (kidney cancer), HH (lymphoma), DAUDI (leukemia), LOXIMVI (melanoma), NAMALWA (lymphoma), EKVX (lung cancer), DOHH2 (lymphoma), SNB75 (brain cancer), SKMEL28 (melanoma), SKMEL5 (melanoma), SKMEL2 (melanoma), M14 (melanoma), UACC 257 (melanoma), H332M (lung cancer), KM12 (colon cancer), HCC2998 (colon cancer), G401 (kidney cancer), RS1184 (lymphoma), MC116 (leukemia), MOLT4 (leukemia), JM1 (liver cancer), HOP-62 (lung cancer), HCT-15 (colon cancer), SF-539 (brain cancer), SF295 (brain cancer), ST486 (lymphoma), U251 (brain cancer), and UACC-62 (melanoma).
(§3) Experiments, as described in Example I were conducted with lansoprazole, omeprazole and SCH 28080 at concentrations of 1 μM, 10 μM, and 100 μM. FIGS. 3A-3K show the experimental results when tumor cells from the following cell lines were treated with lansoprazole, omeprazole, and SCH 28080: IGROV1 (FIG. 3A), OVCAR8 (FIG. 3B), ES-2 (FIG. 3C), CAOV3 (FIG. 3D), OVCAR5 (FIG. 3E), SUDHL4 (FIG. 3F), RPMI8226 (FIG. 3G), RPMI6666 (FIG. 3H), NC37 (FIG. 3I), GDM-1 (FIG. 3J), and MC/CAR (FIG. 3K).

SUDHL4 (lymphoma) = test: MTT tumor cell growth assay; type: cell-based
Description: as §2, §3

RPMI8226 (myeloma) = test: MTT tumor cell growth assay; type: cell-based
Description: as §2, §3

MC/CAR (prostate cancer) = test: MTT tumor cell growth assay; type: cell-based
Description: as §2, §3

OVCAR5 (ovarian cancer) = test: MTT tumor cell growth assay; type: cell-based
Description: as §2, §3

NC37 (lymphoma) = test: MTT tumor cell growth assay; type: cell-based
Description: as §2, §3

[1] = test system: RPMI6666 (Hodgkin's lymphoma); test: MTT tumor cell growth assay; type: cell-based
Description: as §2, §3

[2] = test system: SR Liquid Leukemia (leukemia); test: Xenograft nude mouse model, SR Liquid Leukemia; type: in vivo; details: nude mice, 100 mg/kg in PEG300
Description: as §1

For `Cc1c(OCC(F)(F)F)ccnc1C[S+]([O-])c1nc2ccccc2[nH]1` (stereo not shown) [lansoprazole], the “treating tumor cells derived from tumor cell line” value (HepG2 (liver carcinoma)) was “especially effective”, the “reducing tumor cell growth” value (GDM-1 (leukemia); GDM-1 (FIG. 3J), 10 μM) was “effective in reducing tumor cell growth” and the “tumor cell growth reduction” value (GDM-1 (leukemia); GDM-1 cells, lansoprazole 1-100 μM, 48 hours, MTT) was “significant tumor cell growth reduction”. For the same compound, the “reducing tumor cell growth” value (SUDHL4 (lymphoma); SUDHL4 (FIG. 3F), 100 μM) was “effective in reducing tumor cell growth”, the “tumor cell growth reduction” value (SUDHL4 (lymphoma); SUDHL4 cells, lansoprazole 1-100 μM, 48 hours, MTT) was “significant tumor cell growth reduction” and the “reducing tumor cell growth” value (RPMI8226 (myeloma); RPMI8226 (FIG. 3G), 100 μM) was “effective in reducing tumor cell growth”. For the same compound, the “tumor cell growth reduction” value (RPMI8226 (myeloma); RPMI8226 cells, lansoprazole 1-100 μM, 48 hours, MTT) was “significant tumor cell growth reduction”, the “reducing tumor cell growth” value (MC/CAR (prostate cancer); MC/CAR (FIG. 3K), 100 μM) was “effective in reducing tumor cell growth” and the “tumor cell growth reduction” value (MC/CAR (prostate cancer); MC/CAR cells, lansoprazole 1-100 μM, 48 hours, MTT) was “significant tumor cell growth reduction”. The “reducing tumor cell growth” value (OVCAR5 (ovarian cancer); OVCAR5 (FIG. 3E), 100 μM) was “effective in reducing tumor cell growth”, the “tumor cell growth reduction” value (OVCAR5 (ovarian cancer); OVCAR5 cells, lansoprazole 1-100 μM, 48 hours, MTT) was “significant tumor cell growth reduction” and the “reducing tumor cell growth” value (NC37 (lymphoma); NC37 (FIG. 3I), 100 μM) was “effective in reducing tumor cell growth”. For the same compound, the “tumor cell growth reduction” value (NC37 (lymphoma); NC37 cells, lansoprazole 1-100 μM, 48 hours, MTT) was “significant tumor cell growth reduction”, the “reducing tumor cell growth” value ([1]; RPMI6666 (FIG. 3H), 100 μM) was “effective in reducing tumor cell growth” and the “tumor cell growth reduction” value ([1]; RPMI6666 cells, lansoprazole 1-100 μM, 48 hours, MTT) was “significant tumor cell growth reduction”. For the same compound, the “treating tumor cells derived from tumor cell line” value [2] was “especially effective”.
